pIC50: −log10 of the molar value. “And” between values parts separate entries of the source, which are not always exact repeats. Equal entries are not always repeated.
System: NCI-H196 SCLC complex tumor spheroid viability
Experiment: Anticancer human tumor NCI-H196 cell line growth inhibition;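 note: spheroids exposed to compounds for 7 days before readout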;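 for viability, T/C: 100% = DMSO vehicle control wells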
Conditions: for viability, T/C: stronger effect = lower value; active = viability on the fitted dose curve at most 10% of control; inactive = the rest
Procedure, shortened: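 Single agents and combinations were tested on spheroids built from tumor cells plus HUVEC and hMSC, at half-log dilutions starting at or near clinical Cmax, else 10 microM; final DMSO 0.25% (v/v).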

[2H]c1nc(C)nc([2H])c1-c1cc(NC[C@@H](C)c2cccc3c(C(=O)NC)ccnc23)ncn1 + Cn1nnc2c(C(N)=O)ncn2c1=O
< 5.00: pIC50 (curve of first compound, second compound 1 µM) | pIC50 (curve of first compound, second compound 3.16 µM) | pIC50 (curve of first compound, second compound 10 µM) | pIC50 (curve of first compound, second compound 31.6 µM) | pIC50 (curve of first compound, second compound 100 µM)
inactive: viability, T/C (second compound 1 µM, first compound 0.0316 µM) 94.1% | viability, T/C (second compound 1 µM, first compound 0.1 µM) 96.6% | viability, T/C (second compound 1 µM, first compound 0.316 µM) 97.9% | viability, T/C (second compound 1 µM, first compound 1 µM) 99.5% | viability, T/C (second compound 1 µM, first compound 3.16 µM) 105% | viability, T/C (second compound 1 µM, first compound 10 µM) 91.2% | viability, T/C (second compound 3.16 µM, first compound 0.0316 µM) 100% | viability, T/C (second compound 3.16 µM, first compound 0.1 µM) 104% | viability, T/C (second compound 3.16 µM, first compound 0.316 µM) 98.5% | viability, T/C (second compound 3.16 µM, first compound 1 µM) 97.5% | viability, T/C (second compound 3.16 µM, first compound 3.16 µM) 90.8% | viability, T/C (second compound 3.16 µM, first compound 10 µM) 96.9% | viability, T/C (second compound 10 µM, first compound 0.0316 µM) 110% | viability, T/C (second compound 10 µM, first compound 0.1 µM) 99.8% | viability, T/C (second compound 10 µM, first compound 0.316 µM) 97.7% | viability, T/C (second compound 10 µM, first compound 1 µM) 101% | viability, T/C (second compound 10 µM, first compound 3.16 µM) 101% | viability, T/C (second compound 10 µM, first compound 10 µM) 107% | viability, T/C (second compound 31.6 µM, first compound 0.0316 µM) 109% | viability, T/C (second compound 31.6 µM, first compound 0.1 µM) 104% | viability, T/C (second compound 31.6 µM, first compound 0.316 µM) 108% | viability, T/C (second compound 31.6 µM, first compound 1 µM) 112% | viability, T/C (second compound 31.6 µM, first compound 3.16 µM) 99.8% | viability, T/C (second compound 31.6 µM, first compound 10 µM) 118% | viability, T/C (second compound 100 µM, first compound 0.0316 µM) 101% | viability, T/C (second compound 100 µM, first compound 0.1 µM) 102% | viability, T/C (second compound 100 µM, first compound 0.316 µM) 99.3% | viability, T/C (second compound 100 µM, first compound 1 µM) 102% | viability, T/C (second compound 100 µM, first compound 3.16 µM) 103% | viability, T/C (second compound 100 µM, first compound 10 µM) 104%

Cn1ncnc1[C@H]1c2n[nH]c(=O)c3cc(F)cc(c23)N[C@@H]1c1ccc(F)cc1
< 5.52: pIC50 (curve of compound)
inactive: viability, T/C (compound 0.00949 µM) 108% and 104% and 101% | viability, T/C (compound 0.03 µM) 102% and 96.7% and 99% | viability, T/C (compound 0.0949 µM) 103% and 98.2% and 102% | viability, T/C (compound 0.3 µM) 102% and 98.1% and 100% | viability, T/C (compound 0.949 µM) 104% and 96.5% and 89.3% | viability, T/C (compound 3 µM) 108% and 92% and 87.2%

Cc1sc2c(c1C)C(c1ccc(Cl)cc1)=NC(CC(=O)Nc1ccc(O)cc1)c1nnc(C)n1-2 (centres undefined)
6.12 and 6.11 and 6.18: pIC50 (curve of compound)
inactive: viability, T/C (compound 0.00949 µM) 102% and 106% and 98% | viability, T/C (compound 0.03 µM) 101% and 108% and 93.3% | viability, T/C (compound 0.0949 µM) 91.3% and 94.5% and 91.4% | viability, T/C (compound 0.3 µM) 85.1% and 78% and 76.3% | viability, T/C (compound 0.949 µM) 41.5% and 43.1% and 38.3% | viability, T/C (compound 3 µM) 23% and 23.8% and 20.7%

O=C(c1cc(Cc2n[nH]c(=O)c3ccccc23)ccc1F)N1CCN(C(=O)C2CC2)CC1 + COc1cc2c(cc1O)CCNC21CSC2c3c(OC(C)=O)c(C)c4c(c3C(COC1=O)N1C(O)C3Cc5cc(C)c(OC)c(O)c5C(C21)N3C)OCO4
< 4.52: pIC50 (curve of first compound, second compound 30 pM) | pIC50 (curve of first compound, second compound 94.9 pM) | pIC50 (curve of first compound, second compound 0.0003 µM) | pIC50 (curve of first compound, second compound 0.000949 µM)
> 7.02: pIC50 (curve of first compound, second compound 0.003 µM)
inactive: viability, T/C (second compound 30 pM, first compound 0.0949 µM) 107% | viability, T/C (second compound 30 pM, first compound 0.3 µM) 105% | viability, T/C (second compound 30 pM, first compound 0.949 µM) 101% | viability, T/C (second compound 30 pM, first compound 3 µM) 98.9% | viability, T/C (second compound 30 pM, first compound 9.49 µM) 85.5% | viability, T/C (second compound 30 pM, first compound 30 µM) 67.2% | viability, T/C (second compound 94.9 pM, first compound 0.0949 µM) 104% | viability, T/C (second compound 94.9 pM, first compound 0.3 µM) 102% | viability, T/C (second compound 94.9 pM, first compound 0.949 µM) 102% | viability, T/C (second compound 94.9 pM, first compound 3 µM) 93.7% | viability, T/C (second compound 94.9 pM, first compound 9.49 µM) 91.5% | viability, T/C (second compound 94.9 pM, first compound 30 µM) 62.7% | viability, T/C (second compound 0.0003 µM, first compound 0.0949 µM) 99.6% | viability, T/C (second compound 0.0003 µM, first compound 0.3 µM) 105% | viability, T/C (second compound 0.0003 µM, first compound 0.949 µM) 99.5% | viability, T/C (second compound 0.0003 µM, first compound 3 µM) 92% | viability, T/C (second compound 0.0003 µM, first compound 9.49 µM) 84.3% | viability, T/C (second compound 0.0003 µM, first compound 30 µM) 66% | viability, T/C (second compound 0.000949 µM, first compound 0.0949 µM) 86.4% | viability, T/C (second compound 0.000949 µM, first compound 0.3 µM) 86.9% | viability, T/C (second compound 0.000949 µM, first compound 0.949 µM) 80.7% | viability, T/C (second compound 0.000949 µM, first compound 3 µM) 78.5% | viability, T/C (second compound 0.000949 µM, first compound 9.49 µM) 68.9% | viability, T/C (second compound 0.000949 µM, first compound 30 µM) 54.4%
active: viability, T/C (second compound 0.003 µM, first compound 0.0949 µM) 3.15% | viability, T/C (second compound 0.003 µM, first compound 0.3 µM) 6.44% | viability, T/C (second compound 0.003 µM, first compound 0.949 µM) 3.39% | viability, T/C (second compound 0.003 µM, first compound 3 µM) 1.87% | viability, T/C (second compound 0.003 µM, first compound 9.49 µM) 0.89% | viability, T/C (second compound 0.003 µM, first compound 30 µM) 1.4%

From PubChem BioAssay AID1845208 (Molecular Pharmacology Branch, DTP, NCI, 2023)
